Assay results: paper PMC2810552 (Journal of medicinal chemistry, 2009)
Where two headings read alike, the source gives them in different places.

Assays:
[1] = biological target: T1, Gal4DBD-GRLBD-VP16 fusion protein in HeLa cells (Homo sapiens, UniProt P04150); assay type: cell-based; settings: for Luc activity induced (in words): up to 6 µM
T1 sequence (P04150 524-758 limits assumed): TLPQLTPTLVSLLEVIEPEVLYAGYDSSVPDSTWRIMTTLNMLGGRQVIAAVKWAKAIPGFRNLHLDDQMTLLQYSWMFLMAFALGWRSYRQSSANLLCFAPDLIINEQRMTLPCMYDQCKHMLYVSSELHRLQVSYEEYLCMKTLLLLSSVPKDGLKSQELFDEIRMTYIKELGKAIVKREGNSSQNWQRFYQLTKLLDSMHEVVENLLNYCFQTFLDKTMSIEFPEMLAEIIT

[2] = biological target: T2, breast cancer cell line MCF7 (Homo sapiens, UniProt P04150); assay: Cell-based functional permeability assay: luciferase reporter in MCF7 cells
T2 sequence (P04150 524-758 limits assumed): T1 sequence (P04150 524-758 limits assumed)

[3] = Solubility limit observed in the Luc assay; assay type: physicochemical; settings: cell-based Luc induction (reporter) assay in HeLa cells
[4] = biological target: T1, Gal4DBD-GRLBD-VP16 fusion protein in HeLa cells; settings: cited from earlier work

Compound: CC(=O)NCCCN(C)CCCNC(=S)NCCSCC(=O)[C@@]1(O)[C@H](C)C[C@H]2[C@@H]3CCC4=CC(=O)C=C[C@]4(C)[C@@]3(F)[C@@H](O)C[C@@]21C [Ac-Da-Sdex (28), Ac-Da-Sdex]
- concentration at which maximum Luc induction was achieved [1]: 6 µM
- maximum Luc induction [1]: 3,000 fold

Compound: CC(=O)NCCNC(=S)NCCSCC(=O)[C@@]1(O)[C@H](C)C[C@H]2[C@@H]3CCC4=CC(=O)C=C[C@]4(C)[C@@]3(F)[C@@H](O)C[C@@]21C [Ac-Et-Sdex (15), Ac-Et-Sdex]
- concentration at which maximum Luc induction was achieved [1]: 0.6 µM
- EC50 [2]: 250 nM
- concentration at which maximum Luc induction was achieved ([2]; MCF7 cells): 1 µM
- maximum Luc induction ([2]; MCF7 cells): 1,200 fold

Compound: C[C@H]1C[C@@H]2[C@H]3CCC4=CC(=O)C=C[C@@]4(C)[C@]3(F)[C@H](O)C[C@@]2(C)[C@]1(O)C(=O)CSCCNC(=S)NCCNC(=O)c1cc(NC(=O)c2cc(NC(=O)c3nccn3C)cn2C)cn1C [ImPy2-Et-Sdex (22), ImPy2-Et-Sdex]
- concentration at which maximum Luc induction was achieved [1]: 6 µM

Compound: C[C@H]1C[C@@H]2[C@H]3CCC4=CC(=O)C=C[C@@]4(C)[C@]3(F)[C@H](O)C[C@@]2(C)[C@]1(O)C(=O)NCCNC(=O)c1cc(NC(=O)c2cc(NC(=O)c3cc(NC(=O)c4nccn4C)cn3C)cn2C)cn1C [ImPy3-Et-Oxdex (25), ImPy3-Et-Oxdex]
- Luc induction at 10 µM, times lower than that of ImPy2-Et-Oxdex [1]: 4 times
- Luc induction at 10 µM, times lower than that of ImPy-Et-Oxdex [1]: 7 times
- solubility [3]: ≤ 10 µM

Compound: C[C@H]1C[C@@H]2[C@H]3CCC4=CC(=O)C=C[C@@]4(C)[C@]3(F)[C@H](O)C[C@@]2(C)[C@]1(O)C(=O)CSCCNC(=S)NCCNC(=O)c1cc(NC(=O)c2cc(NC(=O)c3cc(NC(=O)c4nccn4C)cn3C)cn2C)cn1C [ImPy3-Et-Sdex (21), ImPy3-Et-Sdex]
- Luc activity induced (in words) [1]: did not achieve the maximum induction at 6 µM

Compound: C[C@H]1C[C@@H]2[C@H]3CCC4=CC(=O)C=C[C@@]4(C)[C@]3(F)[C@H](O)C[C@@]2(C)[C@]1(O)C(=O)CSCCNC(=S)NCCNC(=O)c1cc(NC(=O)c2cc(NC(=O)c3cc(NC(=O)c4cc(NC(=O)c5nccn5C)cn4C)cn3C)cn2C)cn1C [ImPy4-Et-Sdex (20), ImPy4-Et-Sdex]
- Luc activity induced (in words) [1]: did not achieve the maximum induction at 6 µM

Compound: C[C@H]1C[C@@H]2[C@H]3CCC4=CC(=O)C=C[C@@]4(C)[C@]3(F)[C@H](O)C[C@@]2(C)[C@]1(O)C(=O)CSCCNC(=S)NCCNC(=O)c1cc(NC(=O)c2cc(NC(=O)c3cc(NC(=O)c4cc(NC(=O)CCCNC(=O)c5nccn5C)cn4C)cn3C)cn2C)cn1C [ImPy4γ-Et-Sdex (19), ImPy4γ-Et-Sdex]
- Luc activity induced (in words) [1]: lowest Luc activity among all Sdex conjugates

Compound: C[C@H]1C[C@@H]2[C@H]3CCC4=CC(=O)C=C[C@@]4(C)[C@]3(F)[C@H](O)C[C@@]2(C)[C@]1(O)C(=O)CSCCNC(=S)NCCNC(=O)c1cc(NC(=O)c2cc(NC(=O)c3cc(NC(=O)c4cc(NC(=O)CCCNC(=O)c5cc(NC(=O)c6nccn6C)cn5C)cn4C)cn3C)cn2C)cn1C [ImPy5γ-Et-Sdex (18), ImPy5γ-Et-Sdex]
- Luc activity induced (in words) [1]: higher levels compared to ImPy4γ-Et-Sdex (19)

Compound: C[C@H]1C[C@@H]2[C@H]3CCC4=CC(=O)C=C[C@@]4(C)[C@]3(F)[C@H](O)C[C@@]2(C)[C@]1(O)C(=O)CSCCNC(=S)NCCNC(=O)c1cc(NC(=O)c2cc(NC(=O)c3cc(NC(=O)c4cc(NC(=O)CCCNC(=O)c5cc(NC(=O)c6cc(NC(=O)c7nccn7C)cn6C)cn5C)cn4C)cn3C)cn2C)cn1C [ImPy6γ-Et-Sdex (17), ImPy6γ-Et-Sdex]
- Luc activity induced (in words) [1]: higher levels compared to ImPy4γ-Et-Sdex (19)

Compound: C[C@H]1C[C@@H]2[C@H]3CCC4=CC(=O)C=C[C@@]4(C)[C@]3(F)[C@H](O)C[C@@]2(C)[C@]1(O)C(=O)NCCNC(=O)c1cc(NC(=O)c2cc(NC(=O)c3cc(NC(=O)c4cc(NC(=O)CCCNC(=O)c5cc(NC(=O)c6cc(NC(=O)c7cc(NC(=O)c8nccn8C)cn7C)cn6C)cn5C)cn4C)cn3C)cn2C)cn1C [ImPy7γ-Et-Oxdex (24), ImPy7γ-Et-Oxdex]
- Luc induction at 10 µM, times lower than that of ImPy2-Et-Oxdex [1]: 4 times
- Luc induction at 10 µM, times lower than that of ImPy-Et-Oxdex [1]: 7 times
- solubility [3]: ≤ 10 µM

Compound: C[C@H]1C[C@@H]2[C@H]3CCC4=CC(=O)C=C[C@@]4(C)[C@]3(F)[C@H](O)C[C@@]2(C)[C@]1(O)C(=O)CSCCNC(=S)NCCNC(=O)c1cc(NC(=O)c2cc(NC(=O)c3cc(NC(=O)c4cc(NC(=O)CCCNC(=O)c5cc(NC(=O)c6cc(NC(=O)c7cc(NC(=O)c8nccn8C)cn7C)cn6C)cn5C)cn4C)cn3C)cn2C)cn1C [ImPy7γ-Et-Sdex (16), ImPy7γ-Et-Sdex]
- Luc activity induction at 6 µM ([1]; 6 µM): 1,500 fold
- Luc activity induced (in words) [1]: higher levels compared to ImPy4γ-Et-Sdex (19)
- Luc activity / cellular uptake (in words) ([2]; MCF7 cells): modest improvement of cellular uptake

Compound: C[C@@H]1C[C@H]2[C@@H]3CCC4=CC(=O)C=C[C@]4(C)[C@@]3(F)[C@@H](O)C[C@]2(C)[C@@]1(O)C(=O)CSCCNC(=S)NCCCN(C)CCCNC(=O)CCNC(=O)c1cc(NC(=O)c2cc(NC(=O)c3cc(NC(=O)c4cc(NC(=O)CCCNC(=O)c5cc(NC(=O)c6cc(NC(=O)c7cc(NC(=O)c8nccn8C)cn7C)cn6C)cn5C)cn4C)cn3C)cn2C)cn1C [ImPy7γ-βDa-Sdex (6), ImPy7γ-βDa-Sdex]
- Luc activity induced (in words) ([4]; cell-based functional assay): modest Luc activity

Compound: C[C@H]1C[C@@H]2[C@H]3CCC4=CC(=O)C=C[C@@]4(C)[C@]3(F)[C@H](O)C[C@@]2(C)[C@]1(O)C(=O)NCCNC(=O)c1cc(NC(=O)c2nccn2C)cn1C [ImPy-Et-Oxdex (27), ImPy-Et-Oxdex]
- concentration at which maximum Luc induction was achieved [1]: ~20 µM

Compound: C[C@H]1C[C@@H]2[C@H]3CCC4=CC(=O)C=C[C@@]4(C)[C@]3(F)[C@H](O)C[C@@]2(C)[C@]1(O)C(=O)CSCCNC(=S)NCCNC(=O)c1cc(NC(=O)c2cncn2C)cn1C [ImPy-Et-Sdex (23), ImPy-Et-Sdex]
- maximum Luc induction [1]: 3700 fold
- EC50 [2]: 940 nM

Compound: C[C@@H]1C[C@H]2[C@@H]3CCC4=CC(=O)C=C[C@]4(C)[C@@]3(F)[C@@H](O)C[C@]2(C)[C@@]1(O)C(N)=O [Oxdex-CONH2 (4), Oxdex-CONH2, reference compound]
- EC50 ([4]; read-out: EC50 of Luc induction, HeLa cells): 35000 ± 3000 nM
